In patent US6635786B2, “Symmetrically disubstituted aromatic compounds and pharmaceutical compositions for inhibiting poly (ADP-ribose) glycohydrolase, and methods for their use” (Guilford Pharmaceuticals, Inc., priority 2001, dated 2003):

Tests used:
human PARG = biological target: T1, human PARG (Homo sapiens, UniProt Q86W56); assay: PARG enzymatic assay; assay type: biochemical; settings: recombinant GST-fused human PARG (aa 378-976); 3H-labeled poly-(ADP-ribose) substrate; 23° C., 10 min
T1 construct: human PARG from amino acid 378 to 976; GST (glutathione-S-transferase, pGEX-4T1) (N); made in house; host or cells: E. coli BL21
Procedure: The potency of PARG inhibition was determined in a PARG enzymatic assay. For each compound, various doses were used to inhibit the PARG reaction. A dose responsible curve was generated to determine the IC50 value and the concentration (in μM) required to achieve 50% inhibition of the reaction.
The PARG assay consisted of (a) preparation of 3H-labeled radioactive PARG as substrate, (b) purification of recombinant PARG, (c) incubation of the compound with the PARG reaction, (d) separation of the product by absorption to glass fiber filter and quantifying the radioactivity of ADP-ribose by scintillation counting.
3H-labeled poly-(ADP-ribose) was made by mixing labeled and unlabeled PAR. Labeled PAR was synthesized in a reaction of 50 mM Tris-HCl (pH 8.0), 4 mM MgCl2, 0.8 μg/mL activated DNA, 3 μM NAD, NEN 3H-NAD (0.1 mCi/mL), 0.8 μl/mL and 1.4 μl/mL Trevigen PARP. The reaction was incubated at room temperature for 60 min, then dialyzed to remove unincorporated 3H NAD using a MWCO 7000 dialysis cassette in 50 mM Phosphate buffer (pH 7.1) at 5° C. over night. Buffer was changed and dialysis continued for 2 h in the morning. The resulting 3H PAR gave 80,000 DPM/10 μL by scintillation counting.
Unlabeled PAR was synthesized in a reaction that consisted of 50 mM Tris-HCl (pH 8.0), 4 mM MgCl2, 0.8 μg/mL activated DNA, 150 μM NAD, and 1.9 μl/mL Trevigen PARP. The reaction was incubated at room temperature for 60 min, and dialyzed to remove unincorporated NAD in a MWCO 7000 cassette using 50 mM Phosphate buffer (pH 7.1) over night at […]. Buffer was changed and dialysis continued for 2 h in the morning. The OD260 of synthesized PAR is […].
The final PAR mix is made by combining 3H-PAR and PAR synthesized @ 150 μM NAD so that the OD260=0.2-0.3 and the DPM/10 μL=10,000 DPM (SA=0.45 Ci/mmole). EDTA was added to 1 mM.
A cDNA fragment encoding the carboxy terminal part of human PARG from amino acid 378 to 976 was amplified by polymerase chain reaction with human thymus cDNA (Clontech, Palo Alto, Calif.) as a template and a pair of primers with the sequences of 5′-[…]-3′ and 5′-[…]-3′. The primers contained the restriction enzyme sites EcoRI and XhoI. The PCR amplified PARG DNA fragment was digested with EcoRI and XhoI, and then ligated to the same sites in pGEX-4T1 plasmid (acquired from Pharmacia/Upjohn Co., Kalamazoo, Mich.) to create pGEX-PARG by using standard molecular biology procedure. The pGEX-PARG was transformed into E. coli strain BL21 for expressing the recombinant protein that has a glutathione-S-transferase at the amino terminus and fused in frame with PARG at the carboxy terminus. The recombinant protein was expressed and purified using glutathione-sephadex 4B beads according to the standard methodology.
A range of potential PARG inhibitors at final concentrations of 200.0 to 0.1 μM were tested, each point done in triplicate. The compounds were dissolved in DMSO resulting in a final DMSO concentration of 5.0%. The reaction was carried out in a volume of 0.1 mL. PARG enzyme was added to a concentration of 0.05 μL/mL to microtiter plates containing approximately 10 μM 3H-labeled poly-(ADP-ribose) in 50 mM Phosphate buffer (pH 7.1), 5 mM B-mercaptoethanol. The reaction was incubated at 23° C. for 10 min. and was stopped with the addition of TCA to a final concentration of 10%.
Enzyme activity was measured by the disappearance of substrate, [poly-(ADP-ribose) polymer], which was quantified as the loss of glass fiber filter adsorbed radioactivity. The reaction was harvested onto Millipore GFC96 well filter plates using the Packard Cell Harvestor. The plates were washed three times with 70% ethanol, air dried, and the radioactivity was measured by scintillation counting.

T1 sequence (Q86W56 378-976): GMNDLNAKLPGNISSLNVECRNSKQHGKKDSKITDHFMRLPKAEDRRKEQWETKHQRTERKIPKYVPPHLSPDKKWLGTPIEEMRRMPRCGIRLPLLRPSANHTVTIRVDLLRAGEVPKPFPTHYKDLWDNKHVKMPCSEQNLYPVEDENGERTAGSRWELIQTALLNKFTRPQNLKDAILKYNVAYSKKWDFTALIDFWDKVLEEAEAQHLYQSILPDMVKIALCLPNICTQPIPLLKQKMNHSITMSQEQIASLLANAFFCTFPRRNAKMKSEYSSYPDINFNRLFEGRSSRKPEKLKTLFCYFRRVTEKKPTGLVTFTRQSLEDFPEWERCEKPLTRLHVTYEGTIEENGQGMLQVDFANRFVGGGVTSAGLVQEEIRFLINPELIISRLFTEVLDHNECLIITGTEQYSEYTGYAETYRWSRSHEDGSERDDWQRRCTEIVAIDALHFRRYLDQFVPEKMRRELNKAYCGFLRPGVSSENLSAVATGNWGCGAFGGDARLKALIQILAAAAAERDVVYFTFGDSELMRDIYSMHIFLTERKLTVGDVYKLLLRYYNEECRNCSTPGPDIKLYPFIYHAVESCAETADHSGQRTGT

Compound	IC50 (human PARG) [µM]	melting point [°C]
O=C(OCc1ccccc1)c1ccc2c(c1)C(Cl)(Cl)c1cc(C(=O)OCc3ccccc3)ccc1-2 [Example 1, 9,9-Dichloro-9H-fluorene-2,7-dicarboxylic acid bis-benzyl ester]	13.5	159 to 162
O=C(OCCCc1ccccc1)c1ccc2c(c1)C(Cl)(Cl)c1cc(C(=O)OCCCc3ccccc3)ccc1-2 [Example 2, 9,9-Dichloro-9H-fluorene-2,7-dicarboxylic acid bis-(3-phenyl-propyl) ester]	11.3	91 to 92
O=C(NCCCc1ccccc1)c1ccc2c(c1)C(Cl)(Cl)c1cc(C(=O)NCCCc3ccccc3)ccc1-2 [Example 13, 2,7-Bis-[N-(3-phenyl-propyl)-carbamoyl]-9,9-dichloro-9H-fluorene]	4.3	165 to 167
O=C(NCCCc1ccccc1)c1ccc2c(c1)C(=O)c1cc(C(=O)NCCCc3ccccc3)ccc1-2 [Example 16]	1.7	162 to 165
O=C(NCCc1ccccc1)c1ccc(C(=O)c2ccc(C(=O)NCCc3ccccc3)cc2)cc1 [Example 18, 4,4′-Bis(N-phenethyl)carbamoyl-benzophenone]	6	244 to 248
O=C(c1cccc2c1S(=O)(=O)c1c(cccc1C(=O)N1CCN(c3ccc(C(F)(F)F)cc3)CC1)O2)N1CCN(c2ccc(C(F)(F)F)cc2)CC1 [Example 44, 1,9-Bis-{N-[4-(4-trifluoromethyl-phenyl)-piperazine]carbamoyl}-10,10-dioxo-phenoxathiin]	12	–
O=C(c1cccc2c1S(=O)(=O)c1c(cccc1C(=O)N1CCN(c3ccc(O)cc3)CC1)O2)N1CCN(c2ccc(O)cc2)CC1 [Example 45, 1,9-Bis{N-[4-(4-hydroxy-phenyl)-piperazine]carbamoyl}-10,10-dioxo-phenoxathiin]	37.9	–
O=C(c1cccc2c1S(=O)(=O)c1c(cccc1C(=O)N1CCN(c3ccncc3)CC1)O2)N1CCN(c2ccncc2)CC1 [Example 46, 1,9-Bis{N-[4-(pyridin-4-yl)-piperazine]carbamoyl}-10,10-dioxo-phenoxathiin]	28.4	–
O=C(NCCCc1ccccc1)c1cccc2c1S(=O)(=O)c1c(cccc1C(=O)NCCCc1ccccc1)O2 [Example 47, 1,9-Bis-[N-(3-phenpropyl)carbamoyl]-10,10-dioxo-phenoxathiin]	100	–
O=C(NCCc1ccc(Cl)cc1Cl)c1cccc2c1S(=O)(=O)c1c(cccc1C(=O)NCCc1ccc(Cl)cc1Cl)O2 [Example 48, 1,9-Bis{N-[2-(2,4-dichlorophenyl)ethyl]carbamoyl}-10,10-dioxo-phenoxathiin]	38.7	–
O=C(NCCN1CCCC1)c1cccc2c1S(=O)(=O)c1c(cccc1C(=O)NCCN1CCCC1)O2 [Example 49, 1,9-Bis{N-[2-(pyrrolidin-1-yl)ethyl]carbamoyl}-10,10-dioxo-phenoxathiin]	9.9	–
O=C(NCCc1cccs1)c1cccc2c1S(=O)(=O)c1c(cccc1C(=O)NCCc1cccs1)O2 [Example 50, 1,9-Bis{N-[2-(thiophen-2-yl)ethyl]carbamoyl}-10,10-dioxo-phenoxathiin]	11.5	–
O=C(NCCCN1CCOCC1)c1cccc2c1S(=O)(=O)c1c(cccc1C(=O)NCCCN1CCOCC1)O2 [Example 51, 1,9-Bis{N-[3-(morpholin-4-yl)-propyl]carbamoyl}-10,10-dioxo-phenoxathiin]	9.6	–
COc1cc(CCNC(=O)c2cccc3c2S(=O)(=O)c2c(cccc2C(=O)NCCc2cc(OC)cc(OC)c2)O3)cc(OC)c1 [Example 52, 1,9-Bis {N-[2-(3,5-dimethoxyphenyl)ethyl]carbamoyl}-10,10-dioxo-phenoxathiin]	31.6	–
CN(CCCC(=O)c1ccc2c(c1)-c1ccc(C(=O)CCCN(C)c3ccccc3)c3cccc-2c13)c1ccccc1 [Example 53, 3,9-Bis[4-(methylphenylamino)butyryl]fluoranthene]	11.8	–
O=C(CCCn1cccc1)c1ccc2c(c1)-c1ccc(C(=O)CCCn3cccc3)c3cccc-2c13 [Example 54, 3,9-Bis[4-(1-pyrrolo)butyryl]fluoranthene]	5.4	–
